According to patent US5932410A, “Assay for the detection of proteases” (Commonwealth Scientific and Industrial Research …, priority 1994, dated 1999):
Where a SMILES comes first, the peptide text is derived from it. The star is where a group is joined. Cbz = O=C(OCc1ccccc1)*

How the values were obtained:
Trypsin [1] = conditions: trypsin as test enzyme; cited from earlier work
Trypsin [2] = assay: Esterase assay, trypsin; assay type: biochemical; conditions: Z-AX-OMe substrate; for Esterase rate, Trypsin: X = P1 residue, rates approximately ± 10%; for % of maximum activity, Trypsin: percentage of the maximum activity
Excerpt: (§1) Advantage was taken of this activity to develop an "esterase" assay which uses a pH indicator to visualise the hydrogen ion release caused by the action of proteases on peptide-ester substrates. A series of twenty compounds of the form, carbobenzoxy alanyl-X-methyl ester (Z-AX-OMe) were synthesised where "X" is one of the naturally occurring amino acids. These substrates were used in a 96 well microtitre plate assay to screen each mutant enzyme for activity and specificity. The reactions were followed visually or quantified using a standard ELISA plate reader. The esterase assay, using trypsin as a test enzyme and Z-Ala-Arg-OMe as substrate, was more sensitive as than traditional trypsin substrates (three times the rate obtained with benzoyl arginine ethyl aster and twenty times the rate of benzoyl arginine p-nitroanilide) (Whittaker et al., Analytical Biochemistry, 220, 238-243, 1994).
(§2) The present inventors produced a panel of substrates carbobenzoxy alanyl-X-methyl eater (Z-AX-OMe) where X is one of the naturally occurring amino acids. The reactivity of these substrates with a number of serine proteases is set out in Table 1 and FIG. 1.
(§3) Rates are A580 change/min./mg protease. Rates are also shown as a […]

Elastase = Elastase (Sus scrofa, UniProt P00772); assay: Esterase assay, elastase; assay type: biochemical; conditions: Z-AX-OMe substrate; for Esterase rate, Elastase: X = P1 residue, rates approximately ± 10%; for % activity, Elastase: normalised to alanine
Elastase, sequence (P00772 27-266): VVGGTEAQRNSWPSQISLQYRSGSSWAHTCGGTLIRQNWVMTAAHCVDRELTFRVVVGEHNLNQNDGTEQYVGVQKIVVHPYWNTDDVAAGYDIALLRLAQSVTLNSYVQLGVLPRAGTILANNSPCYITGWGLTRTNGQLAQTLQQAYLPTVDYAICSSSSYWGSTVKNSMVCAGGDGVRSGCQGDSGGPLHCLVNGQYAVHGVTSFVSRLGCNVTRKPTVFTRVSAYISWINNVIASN
Excerpt: as §1, §2, §3

Chymotrypsin = Chymotrypsin (Bos taurus, UniProt P00766); assay: Esterase assay, chymotrypsin; assay type: biochemical; conditions: Z-AX-OMe substrate; for Esterase rate, Chymotrypsin: X = P1 residue, rates approximately ± 10%; for % of maximum activity, Chymotrypsin: percentage of the maximum activity
Excerpt: as §1, §2, §3

α-Lytic protease = α-Lytic protease (Lysobacter enzymogenes, UniProt P00778); assay: Esterase assay, α-lytic protease; assay type: biochemical; conditions: Z-AX-OMe substrate; for Esterase rate, α-Lytic protease: X = P1 residue, rates approximately ± 10%; for % activity, α-Lytic protease: normalised to alanine
α-Lytic protease, sequence (P00778 25-397 limits assumed): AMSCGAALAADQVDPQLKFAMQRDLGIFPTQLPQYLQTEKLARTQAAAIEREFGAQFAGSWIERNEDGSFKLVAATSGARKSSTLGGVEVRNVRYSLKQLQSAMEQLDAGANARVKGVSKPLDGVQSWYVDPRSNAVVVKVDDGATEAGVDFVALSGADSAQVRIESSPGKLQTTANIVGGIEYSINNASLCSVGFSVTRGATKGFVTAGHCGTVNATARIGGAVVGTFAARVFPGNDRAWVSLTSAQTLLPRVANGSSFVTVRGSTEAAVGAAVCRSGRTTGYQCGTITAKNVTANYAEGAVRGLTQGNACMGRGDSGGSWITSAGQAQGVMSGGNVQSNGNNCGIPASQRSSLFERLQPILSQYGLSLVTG
Excerpt: as §1, §2, §3

Proteinase K = Proteinase K (Parengyodontium album, UniProt P06873); assay: Esterase assay, proteinase K; assay type: biochemical; conditions: Z-AX-OMe substrate; for Esterase rate, Proteinase K: X = P1 residue, rates approximately ± 10%; for % of maximum activity, Proteinase K: percentage of the maximum activity
Proteinase K, sequence (P06873 106-384): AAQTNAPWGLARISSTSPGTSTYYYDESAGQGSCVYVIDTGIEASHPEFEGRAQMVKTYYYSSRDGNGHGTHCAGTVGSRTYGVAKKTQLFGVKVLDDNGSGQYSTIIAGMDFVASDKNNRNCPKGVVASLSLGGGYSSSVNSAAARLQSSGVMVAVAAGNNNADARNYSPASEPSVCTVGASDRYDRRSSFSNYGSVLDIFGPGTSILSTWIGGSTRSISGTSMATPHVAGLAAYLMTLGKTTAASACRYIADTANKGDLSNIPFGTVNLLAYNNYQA
Excerpt: as §1, §2, §3

Thrombin = Thrombin (Homo sapiens, UniProt P00734); assay: Esterase assay, thrombin; assay type: biochemical; conditions: Z-AX-OMe substrate; for Esterase rate, Thrombin: X = P1 residue, rates approximately ± 10%; for % of maximum activity, Thrombin: percentage of the maximum activity
Excerpt: as §1, §2, §3

Subtilisin = assay: Esterase assay, subtilisin; assay type: biochemical; conditions: Z-AX-OMe substrate; for Esterase rate, Subtilisin: X = P1 residue, rates approximately ± 10%; for % of maximum activity, Subtilisin: percentage of the maximum activity
Excerpt: as §1, §2, §3

[3] = biological target: prostate specific antigen (PSA) (Homo sapiens, UniProt P07288); assay: Esterase assay, PSA on peptide ester substrates; assay type: biochemical; conditions: for Rate relative to Ac-AlaValTyr-OMe (218): rate of hydrolysis; for Substrate preference of PSA: within the substrate series tested
prostate specific antigen (PSA), sequence (P07288 25-261): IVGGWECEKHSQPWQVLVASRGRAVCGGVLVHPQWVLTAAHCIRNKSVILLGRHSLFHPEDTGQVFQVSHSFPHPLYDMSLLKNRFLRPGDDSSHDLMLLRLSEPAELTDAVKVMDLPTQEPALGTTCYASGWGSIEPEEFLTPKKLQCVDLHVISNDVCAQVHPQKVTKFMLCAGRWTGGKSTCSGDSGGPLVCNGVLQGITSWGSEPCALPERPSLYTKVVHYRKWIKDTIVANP
Excerpt: Advantage was taken of this activity to develop an "esterase" assay which uses a pH indicator to visualise the hydrogen ion release caused by the action of proteases on peptide-ester substrates. A series of twenty compounds of the form, carbobenzoxy alanyl-X-methyl ester (Z-AX-OMe) were synthesised where "X" is one of the naturally occurring amino acids. These substrates were used in a 96 well microtitre plate assay to screen each mutant enzyme for activity and specificity. The reactions were followed visually or quantified using a standard ELISA plate reader.
In all eleven compounds were synthesised and purified and tested where X was the residue listed below.

[4] = substrates of the form Ac-Ala-x-TyrOMe, FIG. 2

For `COC(=O)[C@H](CCCNC(=N)N)NC(=O)[C@H](C)NC(=O)OCc1ccccc1` [Arg, Z-Ala-Arg-OMe] (Cbz-Ala-Arg-OMe), the “Rate relative to benzoyl arginine ethyl ester” value (Trypsin [1]) is listed as “three times”, the “Rate relative to benzoyl arginine p-nitroanilide” value (Trypsin [1]) is listed as “twenty times” and the “Esterase rate, Trypsin” value (Trypsin [2]) is listed as 355.4 A580 change/min./mg protease. For the same compound, the “% of maximum activity, Trypsin” value (Trypsin [2]) was 100%, the “Esterase rate, Elastase” value (Elastase) was 0 A580 change/min./mg protease and the “% activity, Elastase” value (Elastase) was 0%. For the same compound, the “Esterase rate, Chymotrypsin” value (Chymotrypsin) was 1.1 A580 change/min./mg protease, the “% of maximum activity, Chymotrypsin” value (Chymotrypsin) was 2.0% and the “Esterase rate, α-Lytic protease” value (α-Lytic protease) was 0 A580 change/min./mg protease. The “% activity, α-Lytic protease” value (α-Lytic protease) was 0%, the “Esterase rate, Proteinase K” value (Proteinase K) was 24 A580 change/min./mg protease and the “% of maximum activity, Proteinase K” value (Proteinase K) was 3.1%. For the same compound, the “Esterase rate, Thrombin” value (Thrombin) was 8.7 A580 change/min./mg protease, the “% of maximum activity, Thrombin” value (Thrombin) was 100% and the “Esterase rate, Subtilisin” value (Subtilisin) was 97 A580 change/min./mg protease. For the same compound, the “% of maximum activity, Subtilisin” value (Subtilisin) was 4.5%.

In the case of `COC(=O)[C@H](Cc1ccc(O)cc1)NC(=O)[C@H](CC(C)C)NC(=O)[C@H](C)NC(C)=O` [Ac-AlaLeuTyr-OMe] (Ac-Ala-Leu-Tyr-OMe), the “Rate relative to Ac-AlaValTyr-OMe (218)” value ([3]; PSA) is reported as 70%.

For `COC(=O)[C@H](Cc1ccc(O)cc1)NC(=O)[C@H](C)NC(=O)OCc1ccccc1` [Tyr, Z-Ala-Tyr-OMe] (Cbz-Ala-Tyr-OMe), the “Esterase rate, Trypsin” value (Trypsin [2]) was 10.8 A580 change/min./mg protease, the “% of maximum activity, Trypsin” value (Trypsin [2]) was 3.0% and the “Esterase rate, Elastase” value (Elastase) was 0 A580 change/min./mg protease. The “% activity, Elastase” value (Elastase) was 0%, the “Esterase rate, Chymotrypsin” value (Chymotrypsin) was 55.2 A580 change/min./mg protease and the “% of maximum activity, Chymotrypsin” value (Chymotrypsin) was 100%. The “Esterase rate, α-Lytic protease” value (α-Lytic protease) was 0 A580 change/min./mg protease, the “% activity, α-Lytic protease” value (α-Lytic protease) was 0% and the “Substrate preference of PSA” value [3] was “preferred substrate”. For the same compound, the “Esterase rate, Proteinase K” value (Proteinase K) was 80 A580 change/min./mg protease, the “% of maximum activity, Proteinase K” value (Proteinase K) was 10.3% and the “Esterase rate, Thrombin” value (Thrombin) was 0 A580 change/min./mg protease. The “% of maximum activity, Thrombin” value (Thrombin) was 0%, the “Esterase rate, Subtilisin” value (Subtilisin) was 345 A580 change/min./mg protease and the “% of maximum activity, Subtilisin” value (Subtilisin) was 16.1%.

For “PSA: prostate specific antigen, a protease; the enzyme tested on the substrates”, the “Rate of PSA” value [3, 4] was 0.0263 OD580 change/min/μg and the “Rate of PSA, equivalent” value [3, 4] was 9.99 μmoles substrate/min/mg.

For `COC(=O)[C@H](Cc1ccc(O)cc1)NC(=O)[C@@H](NC(=O)[C@H](C)NC(=O)[C@@H](NC(C)=O)C(C)C)C(C)C` [Ac-Val AlaValTyr-OMe] (Ac-VAVY-OMe), the “Rate relative to Ac-AlaValTyr-OMe (218)” value ([3]; PSA) was 64.6%.

With `COC(=O)[C@H](Cc1ccc(O)cc1)NC(=O)[C@@H](NC(=O)[C@H](C)NC(C)=O)C(C)C` [Substrate 218, Ac-AlaValTyr-OMe] (Ac-Ala-Val-Tyr-OMe) the “Rate relative to Z-AlaTyr OMe (the screening substrate)” value ([3]; PSA, from the graph (FIG. 2)) was 15.5 and the “Substrate preference of PSA” value [3] was “best”.

With `COC(=O)[C@H](Cc1c[nH]c2ccccc12)NC(=O)[C@H](C)NC(=O)OCc1ccccc1` [Trp] (Cbz-Ala-Trp-OMe) the “Esterase rate, Trypsin” value (Trypsin [2]) was “trace”, the “Esterase rate, Elastase” value (Elastase) was 0 A580 change/min./mg protease and the “% activity, Elastase” value (Elastase) was 0%. The “Esterase rate, Chymotrypsin” value (Chymotrypsin) was 27.2 A580 change/min./mg protease, the “% of maximum activity, Chymotrypsin” value (Chymotrypsin) was 49.3% and the “Esterase rate, α-Lytic protease” value (α-Lytic protease) was 0 A580 change/min./mg protease. The “% activity, α-Lytic protease” value (α-Lytic protease) was 0%, the “Esterase rate, Proteinase K” value (Proteinase K) was 353 A580 change/min./mg protease and the “% of maximum activity, Proteinase K” value (Proteinase K) was 45.5%. The “Esterase rate, Thrombin” value (Thrombin) was 0 A580 change/min./mg protease, the “% of maximum activity, Thrombin” value (Thrombin) was 0% and the “Esterase rate, Subtilisin” value (Subtilisin) was 216 A580 change/min./mg protease. For the same compound, the “% of maximum activity, Subtilisin” value (Subtilisin) was 10.1%.

With `CC[C@H](C)[C@H](NC(=O)[C@H](C)NC(=O)OCc1ccccc1)C(=O)OC` [Ile] (Cbz-Ala-Ile-OMe) the “Esterase rate, Trypsin” value (Trypsin [2]) was 0 A580 change/min./mg protease, the “% of maximum activity, Trypsin” value (Trypsin [2]) was 0% and the “Esterase rate, Elastase” value (Elastase) was 1.7 A580 change/min./mg protease. For the same compound, the “% activity, Elastase” value (Elastase) was 11.0%, the “Esterase rate, Chymotrypsin” value (Chymotrypsin) was 0 A580 change/min./mg protease and the “% of maximum activity, Chymotrypsin” value (Chymotrypsin) was 0%. The “Esterase rate, α-Lytic protease” value (α-Lytic protease) was 0 A580 change/min./mg protease, the “% activity, α-Lytic protease” value (α-Lytic protease) was 0% and the “Esterase rate, Proteinase K” value (Proteinase K) was 5 A580 change/min./mg protease. For the same compound, the “% of maximum activity, Proteinase K” value (Proteinase K) was 0.6%, the “Esterase rate, Thrombin” value (Thrombin) was 0 A580 change/min./mg protease and the “% of maximum activity, Thrombin” value (Thrombin) was 0%. The “Esterase rate, Subtilisin” value (Subtilisin) was 16 A580 change/min./mg protease and the “% of maximum activity, Subtilisin” value (Subtilisin) was 0.7%.
